Paper PMC8286840, “Identifying SARS-CoV-2 antiviral compounds by screening for small molecule inhibitors of Nsp3 papain-like protease” (Biochemical Journal, 2021)
Values joined by “and” are separate entries in the source; they are usually repeats but may differ in a detail not shown here. Identical values can stand only once. “Also recorded” adds a separate entry of the source. Like-named read-outs stand apart in the source and are kept apart here.

Assays:
[1] = target: T1, SARS-CoV-2 PLpro (nsp3 1564–1878) (Severe acute respiratory syndrome coronavirus 2, UniProt P0DTD1); test: biochemical; type: biochemical; conditions: for IC50: fluorescent-based assay; for Z score: screen hits, Table 1; for slope value (of slope value/control) 1.25 µM / slope value (of slope value/control) 3.75 µM: number after the slash is the control without compound; for inhibition at 1.25 µM: read-out: Inhibition (%) 1.25 µM; for inhibition at 3.75 µM: read-out: Inhibition (%) 3.75 µM
SARS-CoV-2 PLpro [2] = target: T2, SARS-CoV-2 PLpro (Severe acute respiratory syndrome coronavirus 2, UniProt P0DTD1); type: biochemical; conditions: 3.75 µM and 10 µM compound, 0.5 µM enzyme, 5 h RT
3CLpro (nsp5) = 3CLpro (nsp5) (Severe acute respiratory syndrome coronavirus 2, UniProt P0DTD1); type: biochemical, SARS-CoV-2
SARS-CoV-2 = test: microbe, parasite or virus in culture; type: cell-based
VERO E6 cells [3] = test system: VERO E6 cells
[4] = target: T1, SARS-CoV-2 PLpro (nsp3 1564–1878); test: biochemical; design: FRET-quenched peptide (Pro3) cleavage by PLpro, 10 min pre-incubation, slope over 20 min, normalised to no-compound control; conditions: low concentration screen, read-out: % of control remaining
[5] = target: T1, SARS-CoV-2 PLpro (nsp3 1564–1878); test: biochemical; design: FRET-quenched peptide (Pro3) cleavage by PLpro, 10 min pre-incubation, slope over 20 min, normalised to no-compound control; conditions: high concentration screen, read-out: % of control remaining
SARS-CoV-2 PLpro [6] = target: T2, SARS-CoV-2 PLpro; type: biochemical; conditions: 10 µM inhibitor, 50 nM PLpro, 1 µM substrate, 1 h 25°C
SARS-CoV-2 PLpro [7] = target: T2, SARS-CoV-2 PLpro; type: biochemical; conditions: 10 µM inhibitor, 50 nM PLpro, 1 µM substrate, 1 h 25°C; remark: listed apart in the source
PLpro from SARS-CoV-1 = conditions: cited from earlier work
VERO E6 cells [8] = test: Cytotoxicity in the cell culture-based assay
[9] = target: T1, SARS-CoV-2 PLpro (nsp3 1564–1878); test: biochemical; conditions: read-out: % of control remaining
[10] = target: T1, SARS-CoV-2 PLpro (nsp3 1564–1878); test: biochemical; conditions: read-out: % of control remaining; remark: listed apart in the source
SARS-CoV-1/-2 PLpro = conditions: non-covalent inhibitor; cited from earlier work
[11] = screen, 1.25 µM compound, 1.75 µM enzyme, 20 µM substrate
[12] = screen, 3.75 µM compound, 1.75 µM enzyme, 20 µM substrate
[13] = VERO E6 cells, compound alone, read-out: EC50 viral proliferation
[14] = Severe acute respiratory syndrome coronavirus 2, Vero C1008, VERO E6 cells, compound alone, read-out: EC50 viral proliferation
[15] = Severe acute respiratory syndrome coronavirus 2, Vero C1008, VERO E6 cells, compound plus 0.5 µM remdesivir, read-out: EC50 viral proliferation with remdesivir

Compound: Cc1ccc(NC2=CC(=O)c3sc(C)nc3C2=O)cc1 [Cdk4 Inhibitor III]
- IC50 [1]: 0.39 µM and 0.393 µM
- Z score [1]: −5.34
- Inhibition (%) 1.25 µM [1, 11]: 19%
- slope value (of slope value/control) 1.25 µM ([1]; screen, 1.25 µM compound): 367
- Inhibition (%) 3.75 µM [1, 12]: 39%
- slope value (of slope value/control) 3.75 µM ([1]; screen, 3.75 µM compound): 302
- Inhibition of PLpro cleavage of the substrate (gel-based) (SARS-CoV-2 PLpro [2]): show inhibition; also recorded: strongly inhibited
- Inhibition of 3CLpro activity (gel-based) (3CLpro (nsp5); 3 and 10 µM compound): did not inhibit
- EC50 (SARS-CoV-2; [13]): 3.4 µM
- Cytotoxicity (VERO E6 cells [3]): cytotoxic in the low micromolar range
- remaining activity at 1.25 µM ([4]; Well no.=2408): 81.1%
- remaining activity at 3.75 µM ([5]; Well no.=2408): 61.4%

Compound: Cc1cccc2c3c(ccc12)C1=C(C(=O)C3=O)[C@@H](C)CO1 [Dihydrotanshinone I]
- IC50 [1]: 0.586 µM
- IC50 ([1]; listed as dihydrotanshione I): 0.59 µM
- Z score [1]: −4.52
- inhibition at 1.25 µM [1, 11]: 0%
- slope value (of slope value/control) 1.25 µM ([1]; screen, 1.25 µM compound): 449
- inhibition at 3.75 µM [1, 12]: 33%
- slope value (of slope value/control) 3.75 µM ([1]; screen, 3.75 µM compound): 329
- Inhibition of PLpro cleavage of the substrate (gel-based) (SARS-CoV-2 PLpro [2]): show inhibition; also recorded: strongly inhibited
- Inhibition of 3CLpro activity (gel-based) (3CLpro (nsp5); 3 and 10 µM compound): did not inhibit
- Inhibition of K48-linked Ub3 cleavage (DUB activity) (SARS-CoV-2 PLpro [6]): potent inhibition; also recorded: inhibited strongly
- Inhibition of pro-ISG15 cleavage (deISGylating activity) (SARS-CoV-2 PLpro [7]): potent inhibition
- EC50 (SARS-CoV-2; [14]): 8 µM
- EC50 (SARS-CoV-2; [15]): 5.35 µM
- EC50 (SARS-CoV-2; [13]): 8.15 µM
- Inhibition of SARS-CoV-1 PLpro (PLpro from SARS-CoV-1): inhibit
- Cytotoxicity (VERO E6 cells [8]): did not exhibit much cytotoxicity

Compound: CC1(C)CCC2=C(O1)c1ccccc1C(=O)C2=O [beta-Lapachone]
- IC50 [1]: 0.61 µM
- Z score [1]: −4.66
- inhibition at 1.25 µM [1, 11]: 7%
- slope value (of slope value/control) 1.25 µM ([1]; screen, 1.25 µM compound): 420
- inhibition at 3.75 µM [1, 12]: 34%
- slope value (of slope value/control) 3.75 µM ([1]; screen, 3.75 µM compound): 322
- Inhibition of PLpro cleavage of the substrate (gel-based) (SARS-CoV-2 PLpro [2]): show inhibition; also recorded: strongly inhibited
- Inhibition of 3CLpro activity (gel-based) (3CLpro (nsp5)): did not inhibit
- Inhibition of K48-linked Ub3 cleavage (DUB activity) (SARS-CoV-2 PLpro [6]): potent inhibition; also recorded: inhibited strongly
- Inhibition of pro-ISG15 cleavage (deISGylating activity) (SARS-CoV-2 PLpro [7]): potent inhibition
- EC50 (SARS-CoV-2; [14]): 4.39 µM
- Cytotoxicity (VERO E6 cells [8]): cytotoxic in the low micromolar range

Compound: C=C1C(=O)O[C@@H]2[C@H]3O[C@]3(C)CC/C=C(\C)CC[C@@H]12 [Parthenolide]
- remaining activity at 1.25 µM [9]: 96.7%
- remaining activity at 3.75 µM [10]: 97.3%

Compound: C[N+]1(C)CCc2cc3c(cc2[C@H]1[C@@H]1OC(=O)c2c1ccc1c2OCO1)OCO3 [(-)-Bicuculline methbromide, 1(S), 9(R)]
- remaining activity at 1.25 µM [9]: 100%
- remaining activity at 3.75 µM [10]: 103%

Compound: Cc1coc2c1C(=O)C(=O)c1c-2ccc2c1CCCC2(C)C [Tanshinone IIA, tanshinone IIA]
- Inhibition of PLpro cleavage of the substrate (gel-based) (SARS-CoV-2 PLpro [2]): inhibited cleavage, but only at the higher concentration
- Inhibition of PLpro cleavage of the substrate (gel-based) (SARS-CoV-2 PLpro [2]; listed as tanshinone IIA): show inhibition
- Inhibition of 3CLpro activity (gel-based) (3CLpro (nsp5)): did not inhibit
- EC50 (SARS-CoV-2; [14]): 1150 µM
- Inhibition of SARS-CoV-1 PLpro (PLpro from SARS-CoV-1): better inhibitors of this enzyme than dihydrotanshinone I
- remaining activity at 1.25 µM ([4]; Well no.=3178): 105%
- remaining activity at 1.25 µM ([4]; Well no.=4084): 99.4%
- remaining activity at 3.75 µM ([5]; Well no.=3178): 105%
- remaining activity at 3.75 µM ([5]; Well no.=4084): 89.9%

Compound: Cc1cc2nc3c(=O)[nH]c(=O)nc-3n(C)c2cc1C=O [Ro 08-2750, 2,3,4,10-Tetrahydro-7,10-dimethyl-2,4-dioxobenzo[g]pteridine-8-carboxaldehyde]
- IC50 [1]: 0.53 µM and 0.531 µM
- Z score [1]: −5.79
- inhibition at 1.25 µM [1, 11]: 19%
- slope value (of slope value/control) 1.25 µM ([1]; screen, 1.25 µM compound): 366
- inhibition at 3.75 µM [1, 12]: 42%
- slope value (of slope value/control) 3.75 µM ([1]; screen, 3.75 µM compound): 287
- Inhibition of PLpro cleavage of the substrate (gel-based) (SARS-CoV-2 PLpro [2]): show inhibition; also recorded: strongly inhibited
- Inhibition of 3CLpro activity (gel-based) (3CLpro (nsp5); 3 and 10 µM compound): did not inhibit
- Inhibition of K48-linked Ub3 cleavage (DUB activity) (SARS-CoV-2 PLpro [6]): moderate inhibition; also recorded: moderately
- Inhibition of pro-ISG15 cleavage (deISGylating activity) (SARS-CoV-2 PLpro [7]): moderate inhibition
- EC50 (SARS-CoV-2; [14]): 20 µM
- EC50 (SARS-CoV-2; [15]): 22.7 µM
- Cytotoxicity (VERO E6 cells [3]): some cell toxicity at higher concentrations

Compound: Cc1ccc(N)cc1C(=O)N[C@H](C)c1cccc2ccccc12 [GRL-0617]
- EC50 (SARS-CoV-2; read-out: EC50 viral proliferation): 32.6 µM
- EC50 (SARS-CoV-2; read-out: EC50 viral proliferation with remdesivir): 32.2 µM
- Cytotoxicity (VERO E6 cells [3]): some cell toxicity at higher concentrations
- Effectiveness against SARS-CoV-1/-2 PLpro (SARS-CoV-1/-2 PLpro): effective
